Assay results as given in PubChem BioAssay AID330 (DTP/NCI, 2004).
Where “and” joins values, the source holds several entries; their conditions need not be identical. Equal entries are not always repeated. Toxic doses and inconclusive results are not listed. The calls were made as follows: active = survival T/C of 150% or more; inactive = T/C below 125% in these data.

System: P388 leukemia ip, CD2F1 mice, survival T/C
Assay: NCI In Vivo Anticancer Drug Screen. Data for tumor model P388 Leukemia (intraperitoneal) in CD2F1 (CDF1) mice
Details: endpoint: median survival time, higher = longer survival
In short: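 Mice carrying the transplanted tumor received test compound or vehicle. Survival was recorded in each group, and the value is the treated-group measurement divided by that of the vehicle-treated control group.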

[1] = dose: 100.0 mg/kg/injection, schedule: Q04DX002 (ip), vehicle: saline with Tween-80
[2] = dose: 200.0 mg/kg/injection, schedule: Q04DX002 (ip), vehicle: saline with Tween-80
[3] = dose: 50.0 mg/kg/injection, schedule: Q01DX005 (ip), vehicle: saline with Tween-80
[4] = dose: 100.0 mg/kg/injection, schedule: Q01DX005 (ip), vehicle: saline with Tween-80
[5] = dose: 200.0 mg/kg/injection, schedule: Q01DX005 (ip), vehicle: saline with Tween-80
[6] = dose: 50.0 mg/kg/injection, schedule: Q01DX005 (ip), vehicle: Klucel (hydroxypropylcellulose) (HPC)
[7] = dose: 100.0 mg/kg/injection, schedule: Q01DX005 (ip), vehicle: Klucel (hydroxypropylcellulose) (HPC)
[8] = dose: 50.0 mg/kg/injection, schedule: Q01DX001 (ip), vehicle: Klucel (hydroxypropylcellulose) (HPC)
[9] = dose: 100.0 mg/kg/injection, schedule: Q01DX001 (ip), vehicle: Klucel (hydroxypropylcellulose) (HPC)
[10] = dose: 200.0 mg/kg/injection, schedule: Q01DX001 (ip), vehicle: Klucel (hydroxypropylcellulose) (HPC)
[11] = dose: 400.0 mg/kg/injection, schedule: Q04DX002 (ip), vehicle: saline with Tween-80
[12] = dose: 400.0 mg/kg/injection, schedule: Q01DX001 (ip), vehicle: Klucel (hydroxypropylcellulose) (HPC)

Measured: T/C

O=C1OC(c2ccccc2)(c2ccccc2)c2cc3c(cc21)C(c1ccccc1)(c1ccccc1)OC3=O
inactive: dose: 100.0 mg/kg/injection, schedule: Q01DX001 (ip), vehicle: saline 93 % of control | dose: 200.0 mg/kg/injection, schedule: Q01DX001 (ip), vehicle: saline 93 % of control | dose: 400.0 mg/kg/injection, schedule: Q01DX001 (ip), vehicle: saline 92 % of control

c1cnc2n[se]nc2c1
inactive: dose: 6.25 mg/kg/injection, schedule: Q04DX002 (ip), vehicle: saline 113 % of control | dose: 12.5 mg/kg/injection, schedule: Q04DX002 (ip), vehicle: saline 97 % of control

COC1/C=C/OC2(C)Oc3c(C)c(O)c4c(O)c(c(/C=N/N5CC(C)N(C(=O)c6ccccc6)C(C)C5)c(O)c4c3C2=O)NC(=O)C(C)=C/C=C/C(C)C(O)C(C)C(O)C(C)C(OC(C)=O)C1C (configuration not stated)
inactive: dose: 12.5 mg/kg/injection, schedule: Q01DX009 (ip), vehicle: saline with Tween-80 124 % of control | dose: 25.0 mg/kg/injection, schedule: Q01DX009 (ip), vehicle: saline with Tween-80 124 % of control | dose: 50.0 mg/kg/injection, schedule: Q01DX009 (ip), vehicle: saline with Tween-80 118 % of control | dose: 100.0 mg/kg/injection, schedule: Q01DX009 (ip), vehicle: saline with Tween-80 116 % of control | dose: 200.0 mg/kg/injection, schedule: Q01DX009 (ip), vehicle: saline with Tween-80 109 % of control

O=[N+]([O-])c1cc2[nH]cnc2c([N+](=O)[O-])c1NCc1ccccc1
inactive: [1] 98 % of control | [2] 97 % of control

C=C1C(=O)OC2/C=C(\C)CC/C=C(/C(=O)OC)C(OC(=O)C(C)C(C)O)C(OC(=O)C(C)(O)C(C)O)C12 (configuration not stated)
inactive: dose: 6.0 mg/kg/injection, schedule: Q01DX009 (ip), vehicle: Klucel (hydroxypropylcellulose) (HPC) 122 % of control | dose: 8.0 mg/kg/injection, schedule: Q01DX009 (ip), vehicle: Klucel (hydroxypropylcellulose) (HPC) 122 % of control | dose: 12.0 mg/kg/injection, schedule: Q01DX009 (ip), vehicle: Klucel (hydroxypropylcellulose) (HPC) 105 % of control

CCOC(=O)/C(=C(\C)N)C1CC(=O)NC1=O (configuration not stated)
inactive: dose: 25.0 mg/kg/injection, schedule: Q01DX009 (ip), vehicle: saline 104 % of control | dose: 50.0 mg/kg/injection, schedule: Q01DX009 (ip), vehicle: saline 104 % of control | dose: 100.0 mg/kg/injection, schedule: Q01DX009 (ip), vehicle: saline 101 % of control | dose: 200.0 mg/kg/injection, schedule: Q01DX009 (ip), vehicle: saline 107 % of control

COC(=O)C(O)CC1=CC[C@@H]2CC=C[C@H]12 (some centres not stated)
inactive: [3] 104 % of control | [4] 104 % of control | [5] 104 % of control

CCN(CC)CCNc1cccc2c(SC)ccnc12
inactive: [3] 101 % of control | [4] 104 % of control | [5] 101 % of control

CC(O)C(=O)O (configuration not stated)
inactive: dose: 0.06 % in 0.5 ml injection vol, schedule: Q01DX009 (ip), vehicle: water 98 % of control and 100 % of control | dose: 0.12 % in 0.5 ml injection vol, schedule: Q01DX009 (ip), vehicle: water 107 % of control and 95 % of control | dose: 0.25 % in 0.5 ml injection vol, schedule: Q01DX009 (ip), vehicle: water 93 % of control | dose: 0.5 % in 0.5 ml injection vol, schedule: Q01DX009 (ip), vehicle: water 99 % of control and 100 % of control | dose: 4.0 % in 0.5 ml injection vol, schedule: Q01DX009 (ip), vehicle: water 100 % of control | dose: 8.0 % in 0.5 ml injection vol, schedule: Q01DX009 (ip), vehicle: water 99 % of control and 100 % of control

COc1cc(C/C(=C\c2ccc(OC)c(OCc3ccccc3)c2)[N+](=O)[O-])ccc1OCc1ccccc1
inactive: dose: 9.38 mg/kg/injection, schedule: Q04DX003 (ip), vehicle: Klucel (hydroxypropylcellulose) (HPC) 100 % of control | dose: 18.75 mg/kg/injection, schedule: Q04DX003 (ip), vehicle: Klucel (hydroxypropylcellulose) (HPC) 100 % of control | dose: 37.5 mg/kg/injection, schedule: Q04DX003 (ip), vehicle: Klucel (hydroxypropylcellulose) (HPC) 100 % of control

CC(C)(C)SCC(NC(=O)OCC1c2ccccc2-c2ccccc21)C(=O)O (configuration not stated)
inactive: [6] 100 % of control | [7] 100 % of control

CC1=Nc2ccccc2NC(=O)C1
inactive: dose: 12.5 mg/kg/injection, schedule: Q01DX009 (ip), vehicle: Klucel (hydroxypropylcellulose) (HPC) 99 % of control | dose: 25.0 mg/kg/injection, schedule: Q01DX009 (ip), vehicle: Klucel (hydroxypropylcellulose) (HPC) 108 % of control | dose: 50.0 mg/kg/injection, schedule: Q01DX009 (ip), vehicle: Klucel (hydroxypropylcellulose) (HPC) 100 % of control | dose: 100.0 mg/kg/injection, schedule: Q01DX009 (ip), vehicle: Klucel (hydroxypropylcellulose) (HPC) 108 % of control

CC1OCN2CCCCC12 (configuration not stated)
inactive: dose: 25.0 mg/kg/injection, schedule: Q01DX005 (ip), vehicle: saline 107 % of control | dose: 50.0 mg/kg/injection, schedule: Q01DX005 (ip), vehicle: saline 118 % of control

CC(C)CC(NC1=CC(=O)N(c2ccccc2)C1c1ccccc1)c1nc2ccccc2[nH]1 (configuration not stated)
inactive: [6] 99 % of control | [7] 95 % of control | dose: 200.0 mg/kg/injection, schedule: Q01DX005 (ip), vehicle: Klucel (hydroxypropylcellulose) (HPC) 95 % of control

O=C1N(Cl)C2(c3ccccc3)N(Cl)C(=O)N(Cl)C2(c2ccccc2)N1Cl (configuration not stated)
inactive: dose: 25.0 mg/kg/injection, schedule: Q04DX003 (ip), vehicle: Klucel (hydroxypropylcellulose) (HPC) 103 % of control | dose: 50.0 mg/kg/injection, schedule: Q04DX003 (ip), vehicle: Klucel (hydroxypropylcellulose) (HPC) 110 % of control

Cc1ccc(OP(=O)(Oc2ccc(C)cc2)Oc2ccc(C)cc2)cc1.Cc1ccc(OP(=O)(Oc2ccc(C)cc2)Oc2ccc(C)cc2)cc1.Cc1ccc(OP(=O)(Oc2ccc(C)cc2)Oc2ccc(C)cc2)cc1.Cc1ccc(OP(=O)(Oc2ccc(C)cc2)Oc2ccc(C)cc2)cc1.[Fe+2].[O-][Cl+3]([O-])([O-])O
inactive: [8] 99 % of control | [9] 96 % of control | [10] 99 % of control

O=C(Oc1c(OC(=O)c2ccccc2)c(OC(=O)c2ccccc2)c(OC(=O)c2ccccc2)c(OC(=O)c2ccccc2)c1OC(=O)c1ccccc1)c1ccccc1
inactive: [1] 107 % of control | [2] 94 % of control | [11] 89 % of control

N#Cc1ccc(NN=NCCCCl)cc1
inactive: dose: 25.0 mg/kg/injection, schedule: Q01DX005 (ip), vehicle: distilled water + Tween-80 95 % of control | dose: 25.0 mg/kg/injection, schedule: Q01DX005 (ip), vehicle: saline with Tween-80 100 % of control | dose: 50.0 mg/kg/injection, schedule: Q01DX005 (ip), vehicle: distilled water + Tween-80 93 % of control | [3] 100 % of control | dose: 100.0 mg/kg/injection, schedule: Q01DX005 (ip), vehicle: distilled water + Tween-80 95 % of control | [4] 121 % of control

Cn1nnnc1-c1cccc(F)c1
inactive: [8] 101 % of control | [9] 102 % of control | [10] 104 % of control

CC(C)c1nc2c(n1Cc1ccccc1)C=C(C(=O)c1ccccc1)S(=O)(=O)C(C(=O)c1ccccc1)=C2
inactive: dose: 60.0 mg/kg/injection, schedule: Q01DX005 (ip), vehicle: saline with Tween-80 96 % of control | dose: 120.0 mg/kg/injection, schedule: Q01DX005 (ip), vehicle: saline with Tween-80 90 % of control | dose: 240.0 mg/kg/injection, schedule: Q01DX005 (ip), vehicle: saline with Tween-80 92 % of control

NNC(=O)C(NC(=O)c1ccccc1)C(N)=O (configuration not stated)
inactive: dose: 100.0 mg/kg/injection, schedule: Q04DX003 (ip), vehicle: saline 95 % of control | dose: 200.0 mg/kg/injection, schedule: Q04DX003 (ip), vehicle: saline 95 % of control | dose: 400.0 mg/kg/injection, schedule: Q04DX003 (ip), vehicle: saline 94 % of control

CCCCCCCCOc1cc2cc(O)oc3cc(=O)cc(o1)c23
inactive: dose: 60.0 mg/kg/injection, schedule: Q01DX005 (ip), vehicle: saline 108 % of control | dose: 120.0 mg/kg/injection, schedule: Q01DX005 (ip), vehicle: saline 122 % of control

OCC(O)/C=C/c1ccccc1 (configuration not stated)
inactive: [9] 95 % of control | [1] 96 % of control | [10] 103 % of control | [2] 90 % of control | [12] 108 % of control | [11] 99 % of control

Cc1ccc(C(C(=O)O)(c2ccc(C)cc2)C(O)C(=O)O)cc1 (configuration not stated)
inactive: [9] 107 % of control | [10] 107 % of control | [12] 105 % of control

Cc1c(-c2cnccn2)ssc1=S
inactive: [3] 103 % of control | [4] 99 % of control | [5] 103 % of control
